These results are taken from patent EP4755396A1, “TREATMENT OF P53 GENE MUTATION OR DEFECT NEGATIVE CANCER AND TUMOR PATIENTS” (Ascentawits Pharmaceuticals, Ltd., priority 2023, dated 2025).

Values joined by “and” are separate entries in the source; they are usually repeats but may differ in a detail not shown here. Identical values can stand only once.

In assay [1] the test system is liver cancer. The assay is described as follows: Phase II clinical trial of AST-3424 (CTR20191399). Format: in vivo, human. From the text: The clinical trial registration number is CTR20191399.
• 1. Male or female, aged ≥18 years old. • 2. Histopathologically confirmed advanced HCC that cannot be controlled by surgical resection or local therapy. • 3. History of prior standard systemic therapy including, but not limited to, Sorafenib and/or Oxaliplatin-based systemic chemotherapy, Lenvatinib, Regorafenib and/or Nivolumab, who have experienced disease progression, toxicity intolerance, or refusal to continue treatment with these drugs. • 4. At least one measurable lesion meeting RECIST 1.1 criteria. A lesion with a history of prior radiation therapy shall not be regarded as the measurable lesion unless a definite radiological progression is observed after radiation therapy. • 5. […] Eastern Cooperative Oncology Group (ECOG) performance status score of 0 or 1. • 7. Expected survival time ≥ 12 weeks. • 8. With or without HBV or HCV infection. a. For subjects with HBV infection, HBV-DNA level shall be <2,000 IU/ml, and antiviral therapy with entecavir, tenofovir disoproxil fumarate, or tenofovir alafenamide fumarate shall be administered according to the national guidelines for the prevention and treatment of chronic hepatitis B. The therapy shall be maintained during the study and continued for 6 months after the last dose of the study drug. b. For subjects with HCV infection (in the presence of detectable HCV-RNA or anti-HCV antibodies), treatment may be conducted according to medical practice. • 9. Child-Pugh score ≤ 6 points. • 10. No history of hepatic encephalopathy. • 11. Prior to the initiation of the study drug, all toxicities from previous anticancer therapies (except alopecia, fatigue, or peripheral neuropathy) shall have returned to Grade 1 or baseline levels (NCI CTCAE Version 5). • 12. Subject's laboratory tests shall meet the following criteria. During 14 days before screening laboratory tests, no correction of indicators by blood transfusion, hematopoietic growth factor infusion or albumin infusion is allowed to meet the inclusion criteria: a. Hemoglobin ≥ 90 g/L; b. Platelet count ≥ 80 × 10^9/L; c. Absolute neutrophil count (ANC) ≥ 1.5 × 10^9/L; d. Serum total bilirubin ≤ 3 mg/dL; E. ALT and AST ≤ 5.0 × ULN; f. International normalized ratio (INR) ≤ 2.3 or prothrombin time prolongation ≤ 6 seconds; g. Albumin ≥ 29 g/L; h. Creatinine clearance > 50 mL/min as measured according to the Cockcroft-Gault equation. • 13. No history of alcohol, drug or substance abuse within the past year. • 14. Fertile female subjects shall be in non-lactating and have a negative pregnancy test result within 5 days prior to the initiation of treatment (the subject with a positive urine pregnancy test result needs to be reconfirmed by a serum pregnancy test). • 15. Fertile female and male subjects shall agree to use effective contraceptive measures (e.g. surgical sterilization or condom or diaphragm contraception combined with spermicidal gel or intrauterine contraceptive device [IUD], etc.) with their partners from the start of study participation until 6 months after the last dose of the study drug. • 16. Voluntary participation in this study, fully understanding of the relevant risks, good compliance, and signing the informed consent. Subjects may also sign an informed consent form for future biomedical research (FBR). However, the subjects who would not participate in FBR are still allowed participate in the main trial.
• 1. Untreated active central nervous system (CNS) metastases or leptomeningeal disease. Subjects with CNS metastases that have been adequately treated and confirmed to be stable for at least 4 weeks during screening by clinical tests and brain imaging (MRI or CT) are allowed to participate in the study. • 2. […]

For assay [2], the system named is p53, Rad51, MDM2 and p21 proteins in HPAF-II cells. The assay is described as follows: WB detection of p53 pathway proteins in p53 mutant cells. Format: cell-based. To be noted: 60 nM AST, 8 µM Nutlin-3, 24 hours (Figure 23). As for the experimental part: • 1)HPAF-II cell suspension was added to a 24-well plate, with a cell density of 300000 /well and 995 µL of medium per well. • 2) The cells were cultured overnight in an incubator at 37°C, 5% CO2. • 3) Compound treatment. After 24 hours of cell plating, the cells were grouped and dosed according to different cells.
HPAF-II were grouped as: 1% DMSO treated group, 60nM AST treated group, 8 µM Nutlin-3 treated group, AST 60nM + Nutlin-3 8 µM treated group.
Monotherapy: After 24 hours of cell plating, each well was supplied with 5µL of test compounds at different concentrations: 1% DMSO, AST 1.5nM, Nutlin-3 1µM, AST 60nM and Nutlin-3 8µM, shaken gently to ensure even mixing, and then placed at 37°C, 5% CO2 in an incubator.
Combination therapy: After 24 hours of cell plating, each well was supplied with 5µL of 1µM Nutlin-3 and Nutlin-3 8µM respectively for pre-treatment four 2 hours. Then the corresponding cells were added with […] of 1.5nM AST and 60nM AST, shaken gently to ensure even mixing, and then placed at 37°C, 5% CO2 in an incubator.
4) After incubating the 24-well plates in a 37°C, 5% CO2 incubator for 24 hours, the cell protein lysate was collected for WB detection, and the WB detection results were shown in Figure 23. […]

The mark [3] stands for this setting: 8 subjects who completed efficacy evaluation, liver cancer, 6 mg/m^2 day 1 and day 8 of 21-day cycle, as of July 21, 2023.
The mark [4] stands for this setting: subgroup of 4 cases negative (-) for p53 gene mutation or defect, liver cancer, 6 mg/m^2 day 1 and day 8 of 21-day cycle, as of July 21, 2023.

As to `C[C@H](OP(=O)(N1CC1)N1CC1)c1ccc([N+](=O)[O-])c(Oc2cccc(C(=O)N(C)C)c2)c1` [AST-3424], the “overall DCR” value in assay [1] (8 evaluated liver cancer subjects, 6 mg/m^2 day 1 and day 8 of 21-day cycle, as of July 21, 2023) is given as 75%. In addition, in assay [1] (setting [3]), the “subjects achieved PD” value is on record as 25%, the “subjects achieved PR” value stood at 12.5% and the “subjects achieved SD” value was determined as 62.5%. This molecule also gave an ORR in assay [1] (overall, 8 evaluated liver cancer subjects, 6 mg/m^2 day 1 and day 8 of 21-day cycle, as of July 21, 2023) of 12.5%. For the same molecule, the Efficacy evaluation result in assay [1] (per case, 3 subjects with positive P53 mutation, unclear in whether it affects protein expression (VUS) (Table 10), as of March 11, 2024) is given as “SD, lesion increase”. Besides, the PFS in assay [1] (per case, 8 P53 mutation-positive (MUT) subjects (Table 8), 6 mg/m^2 day 1 and day 8 of 21-day cycle, as of March 11, 2024) is 1.4 months and 1.6 months and 1.5 months and 1.2 months. In assay [1] (setting [4]), this molecule showed a DCR of 75% and an ORR of 25%. The molecule further came in with a DCR in assay [1] (subgroup of 4 cases positive (+) for p53 gene mutation or defect, liver cancer, 6 mg/m^2 day 1 and day 8 of 21-day cycle, as of July 21, 2023) of 75%.

In the case of `O=[N+]([O-])c1ccc(C(OP(=O)(N2CC2)N2CC2)C(F)(F)F)cc1Oc1ccc(-c2ccc(F)cc2)c(F)c1` (stereo not drawn) [AST], in assay [2], the “expression of RAD51 protein (WB)” value is recorded as “promoted the expression of RAD51 protein”; the “expression of p53, its downstream proteins p21 and MDM2 (WB)” value is “no effect”.
